In brackets after ≈: the same amount, converted by molar mass. Read-outs that look alike come from different tables or passages of the source. Peptide text beside a SMILES is read from it.
Tests used:
Botrytis cinerea = assay: Antifungal 96-well plate assay with resazurin cell viability readout; format: cell-based; conditions: chemically synthesized peptides; 2-fold dilution series; 48 h incubation, then resazurin overnight; lowest concentration with no change in blue color
Description: Antifungal activity of NCR13_AlaV1-V5 was assessed at different concentrations using a 2-fold dilution series of each peptide. Antifungal activity of each peptide was determined spectrophotometrically using the 96-well plate assay. Around 45 μL of each peptide at different concentrations was added to each well of the microtiter plate containing 45 μL of ˜[…] spore suspension. The quantitative fungal growth inhibition was determined by measuring the absorbance at 595 nm using a (Tecan Infinite M200 ProTecan Systems Inc., San Jose, CA) microplate reader after 48 h. The fungal cell viability was determined by the resazurin cell viability assay. After incubation of the pathogen/peptide mixture for 48 h, 10 μl of 0.1% resazurin solution was added to each well. After incubation of the mixture overnight, a change in the color of the resazurin dye from blue to pink or colorless indicated the presence of live fungal cells. The MIC for each peptide was the lowest concentration of each peptide at which no change in blue color occurred.

Candida albicans (33795) = assay: In vitro antifungal activity (spectrophotometric) against human fungal pathogens; conditions: Pichia pastoris-expressed peptide, half-strength potato dextrose broth
Description: (§1) The in vitro antifungal activity of these peptides was determined spectrophotometrically as described in previous publications (Sagaram et al. 2013: Islam et al. 2017) in half-strength potato dextrose broth.

[1] = test system: Tricophyton metagrophytes (26103); assay: as above; conditions: Pichia pastoris-expressed peptide, half-strength potato dextrose broth
Description: as §1

[2] = test system: Tricophyton rubrum (36381); assay: as above; conditions: Pichia pastoris-expressed peptide, half-strength potato dextrose broth
Description: as §1

Candida glabrata (38827) = assay: as above; conditions: Pichia pastoris-expressed peptide, half-strength potato dextrose broth
Description: as §1

Candida auris (38883) = assay: as above; conditions: Pichia pastoris-expressed peptide, half-strength potato dextrose broth
Description: as §1

| Compound | MIC (μM) Fusarium graminearum (Fusarium graminearum; 48 h) | MIC (μM) Botrytis cinerea (Botrytis cinerea) | other results |
| --- | --- | --- | --- |
| CC[C@H](C)[C@H](NC(=O)[C@H](CS)NC(=O)[C@H](CCCCN)NC(=O)[C@@H]1CCCN1C(=O)[C@@H](NC(=O)[C@H](CCCCN)NC(=O)[C@@H]1CCCN1C(=O)[C@H](CCCCN)NC(=O)[C@H](CCCNC(=N)N)NC(=O)[C@H](CS)NC(=O)[C@H](C)NC(=O)[C@H](Cc1ccccc1)NC(=O)[C@H](CCCCN)NC(=O)[C@H](CCCCN)NC(=O)[C@H](CS)NC(=O)[C@H](CC(=O)O)NC(=O)[C@H](CCCCN)NC(=O)[C@H](CC(=O)O)NC(=O)[C@H](CO)NC(=O)[C@H](CCC(N)=O)NC(=O)[C@H](CS)NC(=O)[C@@H]1CCCN1C(=O)[C@H](CCCCN)NC(=O)[C@@H](N)[C@@H](C)O)C(C)C)C(=O)N[C@@H](CC(N)=O)C(=O)NCC(=O)N[C@@H](Cc1ccccc1)C(=O)N[C@@H](CS)C(=O)N[C@@H](CCCCN)C(=O)N[C@@H](CS)C(=O)N[C@H](C(=O)N[C@@H](CCCNC(=N)N)C(=O)O)C(C)C [NCR13, reference compound] (H-TKPCQSDKDCKKFACRKPKVPKCINGFCKCVR-OH; N-terminus and C-terminus assumed) | 6 µM (≈ 22 µg/mL) |  |  |
| CC[C@H](C)[C@H](NC(=O)[C@H](CS)NC(=O)[C@H](CCCCN)NC(=O)[C@@H]1CCCN1C(=O)[C@@H](NC(=O)[C@H](CCCCN)NC(=O)[C@@H]1CCCN1C(=O)[C@H](CCCCN)NC(=O)[C@H](CCCNC(=N)N)NC(=O)[C@H](CS)NC(=O)[C@H](C)NC(=O)[C@H](Cc1ccccc1)NC(=O)[C@H](CCCCN)NC(=O)[C@H](CCCCN)NC(=O)[C@H](CS)NC(=O)[C@H](C)NC(=O)[C@H](C)NC(=O)[C@H](C)NC(=O)[C@H](C)NC(=O)[C@H](C)NC(=O)[C@H](CS)NC(=O)[C@@H]1CCCN1C(=O)[C@H](CCCCN)NC(=O)[C@@H](N)[C@@H](C)O)C(C)C)C(=O)N[C@@H](CC(N)=O)C(=O)NCC(=O)N[C@@H](Cc1ccccc1)C(=O)N[C@@H](CS)C(=O)N[C@@H](CCCCN)C(=O)N[C@@H](CS)C(=O)N[C@H](C(=O)N[C@@H](CCCNC(=N)N)C(=O)O)C(C)C [NCR13_AlaV1] (H-TKPCAAAAACKKFACRKPKVPKCINGFCKCVR-OH; N-terminus and C-terminus assumed) | 6 µM (≈ 20.7 µg/mL) |  |  |
| CC[C@H](C)[C@H](NC(=O)[C@H](CS)NC(=O)[C@H](C)NC(=O)[C@H](C)NC(=O)[C@H](C)NC(=O)[C@H](CCCCN)NC(=O)[C@@H]1CCCN1C(=O)[C@H](CCCCN)NC(=O)[C@H](CCCNC(=N)N)NC(=O)[C@H](CS)NC(=O)[C@H](C)NC(=O)[C@H](Cc1ccccc1)NC(=O)[C@H](CCCCN)NC(=O)[C@H](CCCCN)NC(=O)[C@H](CS)NC(=O)[C@H](CC(=O)O)NC(=O)[C@H](CCCCN)NC(=O)[C@H](CC(=O)O)NC(=O)[C@H](CO)NC(=O)[C@H](CCC(N)=O)NC(=O)[C@H](CS)NC(=O)[C@@H]1CCCN1C(=O)[C@H](CCCCN)NC(=O)[C@@H](N)[C@@H](C)O)C(=O)N[C@@H](CC(N)=O)C(=O)NCC(=O)N[C@@H](Cc1ccccc1)C(=O)N[C@@H](CS)C(=O)N[C@@H](CCCCN)C(=O)N[C@@H](CS)C(=O)N[C@H](C(=O)N[C@@H](CCCNC(=N)N)C(=O)O)C(C)C [NCR13_AlaV4] (H-TKPCQSDKDCKKFACRKPKAAACINGFCKCVR-OH; N-terminus and C-terminus assumed) | 12 µM (≈ 42.6 µg/mL) | Inactive |  |
| CC(C)[C@H](NC(=O)[C@H](CS)NC(=O)[C@H](CCCCN)NC(=O)[C@H](CS)NC(=O)[C@H](C)NC(=O)[C@H](C)NC(=O)[C@H](C)NC(=O)[C@H](C)NC(=O)[C@H](CS)NC(=O)[C@H](CCCCN)NC(=O)[C@@H]1CCCN1C(=O)[C@@H](NC(=O)[C@H](CCCCN)NC(=O)[C@@H]1CCCN1C(=O)[C@H](CCCCN)NC(=O)[C@H](CCCNC(=N)N)NC(=O)[C@H](CS)NC(=O)[C@H](C)NC(=O)[C@H](Cc1ccccc1)NC(=O)[C@H](CCCCN)NC(=O)[C@H](CCCCN)NC(=O)[C@H](CS)NC(=O)[C@H](CC(=O)O)NC(=O)[C@H](CCCCN)NC(=O)[C@H](CC(=O)O)NC(=O)[C@H](CO)NC(=O)[C@H](CCC(N)=O)NC(=O)[C@H](CS)NC(=O)[C@@H]1CCCN1C(=O)[C@H](CCCCN)NC(=O)[C@@H](N)[C@@H](C)O)C(C)C)C(=O)N[C@@H](CCCNC(=N)N)C(=O)O [NCR13_AlaV5] (H-TKPCQSDKDCKKFACRKPKVPKCAAAACKCVR-OH; N-terminus and C-terminus assumed) | 6 µM (≈ 21.1 µg/mL) |  |  |
| CaNCR13: Wild-type nodule specific cysteine rich peptide from chickpea, SEQ ID NO: 1, expressed in Pichia pastoris and purified by FPLC and HPLC (TKPCQSDKDCKKFACRKPKVPKCINGFCKCVR; listed as Cicer arietinum) |  |  | MIC (Candida albicans (33795)): 3.2 µM; MIC [1]: 0.41 µM; MIC [2]: 3.2 µM; MIC (Candida glabrata (38827)): 0.41 µM; MIC (Candida auris (38883)): 6.4 µM |
| TKPCQSDKDCAAAACRKPKVPKCINGFCKCVR (SEQ ID NO: 42) [NCR13_AlaV2] |  | Inactive | MIC (μM) Fusarium graminearum (Fusarium graminearum): Inactive |
| TKPCQSDKDCKKFACAAAAVPKCINGFCKCVR (SEQ ID NO: 43) [NCR13_AlaV3] |  | Inactive | MIC (μM) Fusarium graminearum (Fusarium graminearum): Inactive |

— patent US20250176546A1, “ANTIMICROBIAL CaNCR PEPTIDE VARIANTS” (Donald Danforth Plant Science Center, priority 2022, published 2025)
